Laboratory results taken from ChEMBL document CHEMBL3600353, “In Vitro Activity of Epigallocatechin Gallate and Quercetin Alone and in Combination versus Clinical Isolates of Methicillin-Resistant Staphylococcus aureus” (2015).
Activity calls are given as the source filed them. No cut-off for these calls is given here.

How the values were obtained:
Staphylococcus aureus [1] = experiment: Antibacterial activity against methicillin-resistant Staphylococcus aureus isolate 1 by disk diffusion assay; type: functional
Staphylococcus aureus [2] = experiment: Antibacterial activity against methicillin-resistant Staphylococcus aureus isolate 2 by disk diffusion assay; type: functional
Staphylococcus aureus [3] = experiment: Antibacterial activity against methicillin-resistant Staphylococcus aureus isolate 3 by disk diffusion assay; type: functional
Staphylococcus aureus [4] = experiment: Antibacterial activity against methicillin-resistant Staphylococcus aureus isolate 4 by disk diffusion assay; type: functional
Staphylococcus aureus [5] = experiment: Antibacterial activity against methicillin-resistant Staphylococcus aureus isolate 5 by disk diffusion assay; type: functional
Staphylococcus aureus [6] = experiment: Antibacterial activity against methicillin-resistant Staphylococcus aureus isolate 6 by disk diffusion assay; type: functional
Staphylococcus aureus [7] = experiment: Antibacterial activity against methicillin-resistant Staphylococcus aureus isolate 7 by disk diffusion assay; type: functional
Staphylococcus aureus [8] = experiment: Antibacterial activity against methicillin-resistant Staphylococcus aureus isolate 8 by disk diffusion assay; type: functional
Staphylococcus aureus [9] = experiment: Antibacterial activity against methicillin-resistant Staphylococcus aureus isolate 9 by disk diffusion assay; type: functional
Staphylococcus aureus [10] = experiment: Antibacterial activity against methicillin-resistant Staphylococcus aureus NCTC 12493 after 24 hrs by checkerboard assay; type: functional; conditions: NCTC 12493, 24 h
Staphylococcus aureus [11] = experiment: Antibacterial activity against methicillin-resistant Staphylococcus aureus isolate 1 after 24 hrs by checkerboard assay; type: functional; conditions: isolate 1, 24 h
Staphylococcus aureus [12] = experiment: Antibacterial activity against methicillin-resistant Staphylococcus aureus isolate 2 after 24 hrs by checkerboard assay; type: functional; conditions: isolate 2, 24 h
Staphylococcus aureus [13] = experiment: Antibacterial activity against methicillin-resistant Staphylococcus aureus isolate 3 after 24 hrs by checkerboard assay; type: functional; conditions: isolate 3, 24 h
Staphylococcus aureus [14] = experiment: Antibacterial activity against methicillin-resistant Staphylococcus aureus isolate 4 after 24 hrs by checkerboard assay; type: functional; conditions: isolate 4, 24 h
Staphylococcus aureus [15] = experiment: Antibacterial activity against methicillin-resistant Staphylococcus aureus isolate 5 after 24 hrs by checkerboard assay; type: functional; conditions: isolate 5, 24 h
Staphylococcus aureus [16] = experiment: Antibacterial activity against methicillin-resistant Staphylococcus aureus isolate 6 after 24 hrs by checkerboard assay; type: functional; conditions: isolate 6, 24 h
Staphylococcus aureus [17] = experiment: Antibacterial activity against methicillin-resistant Staphylococcus aureus isolate 7 after 24 hrs by checkerboard assay; type: functional; conditions: isolate 7, 24 h
Staphylococcus aureus [18] = experiment: Antibacterial activity against methicillin-resistant Staphylococcus aureus isolate 8 after 24 hrs by checkerboard assay; type: functional; conditions: isolate 8, 24 h
Staphylococcus aureus [19] = experiment: Antibacterial activity against methicillin-resistant Staphylococcus aureus isolate 9 after 24 hrs by checkerboard assay; type: functional; conditions: isolate 9, 24 h
Staphylococcus aureus [20] = experiment: Antibacterial activity against vancomycin-intermediate resistant Staphylococcus aureus Mu50 after 24 hrs by checkerboard assay; type: functional; conditions: Mu50, 24 h
Staphylococcus aureus [21] = experiment: Antibacterial activity against Staphylococcus aureus ATCC 25923 after 24 hrs by checkerboard assay; type: functional; conditions: ATCC 25923, 24 h
Staphylococcus aureus [22] = experiment: Antibacterial activity against methicillin-resistant Staphylococcus aureus NCTC 12493 assessed as log reduction of bacterial growth after 9 hrs; type: functional
Staphylococcus aureus [23] = experiment: Antibacterial activity against methicillin-sensitive Staphylococcus aureus ATCC 25923 at 1.69 mM after 5 hrs by time kill assay; type: functional, organism-based
Staphylococcus aureus [24] = experiment: Antibacterial activity against methicillin-resistant Staphylococcus aureus NCTC 12493 at 1.69 mM after 5 hrs by time kill assay; type: functional, organism-based
Staphylococcus aureus [25] = experiment: Antibacterial activity against methicillin-sensitive Staphylococcus aureus ATCC 25923 at 1.69 mM after 4 hrs by time kill assay; type: functional, organism-based
Staphylococcus aureus [26] = experiment: Antibacterial activity against methicillin-resistant Staphylococcus aureus NCTC 12493 at 1.69 mM after 4 hrs by time kill assay; type: functional, organism-based
Staphylococcus aureus [27] = experiment: Antibacterial activity against vancomycin-intermediate resistant Staphylococcus aureus Mu50 at 1.69 mM after 4 hrs by time kill assay; type: functional, organism-based

O=c1c(O)c(-c2ccc(O)c(O)c2)oc2cc(O)cc(O)c12 [QUERCETIN]
inhibition zone (IZ) (Staphylococcus aureus [1]): 8 mm
inhibition zone (IZ) (Staphylococcus aureus [2]): inactive
inhibition zone (IZ) (Staphylococcus aureus [3]): inactive
inhibition zone (IZ) (Staphylococcus aureus [4]): inactive
inhibition zone (IZ) (Staphylococcus aureus [5]): inactive
inhibition zone (IZ) (Staphylococcus aureus [6]): inactive
inhibition zone (IZ) (Staphylococcus aureus [7]): inactive
inhibition zone (IZ) (Staphylococcus aureus [8]): inactive
inhibition zone (IZ) (Staphylococcus aureus [9]): inactive
MIC (Staphylococcus aureus [10]): 850 µM
MIC (Staphylococcus aureus [11]): 1690 µM
MIC (Staphylococcus aureus [12]): 1690 µM
MIC (Staphylococcus aureus [13]): 1690 µM
MIC (Staphylococcus aureus [14]): 1690 µM
MIC (Staphylococcus aureus [15]): 1690 µM
MIC (Staphylococcus aureus [16]): 1690 µM
MIC (Staphylococcus aureus [17]): 1690 µM
MIC (Staphylococcus aureus [18]): 1690 µM
MIC (Staphylococcus aureus [19]): 1690 µM
MIC (Staphylococcus aureus [20]): 1690 µM
MIC (Staphylococcus aureus [21]): 1690 µM
FC (Staphylococcus aureus [22]): 1
Activity (Staphylococcus aureus [23]): inactive
Activity (Staphylococcus aureus [24]): inactive
Activity (Staphylococcus aureus [25]): Active
Activity (Staphylococcus aureus [26]): Active
Activity (Staphylococcus aureus [27]): inactive
